One data set in a line: solubility in water. In kind it is physicochemical. The note with it: dihydrochloride; data omitted.
A further data set addresses GP IIb/IIIa (Homo sapiens, UniProt P05106+P08514). The data set can be described thus: GP IIb/IIIa antagonistic activity (Pharmacological Test 2 in WO 94/21599). The data set is classed as binding. Here is the method: Pharmacological Test Example 2: GP IIb/IIIa Antagonistic Activity and Human Platelet Aggregation Inhibitory Activity
GP IIb/IIIa antagonistic activity was measured for the compounds according to the present invention. The measurement of the GP IIb/IIIa antagonistic activity was carried out according to the method described in Pharmacological Test 2 in WO 94/21599.

In data set [1] the target is T1, integrin αvβ3 (vitronectin receptor purified from the human placenta) (Homo sapiens, UniProt P05106+P06756).
T1 construct: a vitronectin receptor (protein content: 118 mg/ml) purified from the human placenta; from tissue; host or cells: human placenta
The experiment in a line: αvβ3 binding assay (vitronectin-vitronectin receptor binding assay). To be noted: vitronectin binding to vitronectin receptor purified from human placenta; read-out: integrin αvβ3 antagonistic activity (IC50). Here is the method: Pharmacological Test Example 1: αvβ3 Binding Assay
Integrin αvβ3 antagonistic activity was first measured in a vitronectin-vitronectin receptor binding assay system in accordance with the method of Kouns et al. (W. C. Kouns, D. Kirchhofer, P. Hadvary, A. Edenhofer, T. Weller, G. Pfenninger, H. R. Baumgartner, L. K. Jennings and B. Steiner, Blood, 80, 2539-2547 (1992)). […] A 0.1 M citric acid buffer (pH 4.3) containing 0.05% NaN3 was added in an amount of […] to stop the reaction, followed by the measurement of the absorbance at 415 nm with a microplate reader (MTP 32, Corona Electric) (reference: 675 nm). The total binding was defined as the absorbance after a reaction using 50 ml of TBS-Tween instead of the test compound, and the non-specific binding (100% inhibition) was defined as the absorbance after a reaction using 50 ml of TBS-Tween containing 2×10^−3 M RGDS. The inhibition was calculated by the following equation: [formula]
IC50 was determined from a primary regression line of the logarithm of each concentration of the test compound and the logarithm of (100-inhibition)/inhibition.

Structures are written as SMILES.

Chain of GP IIb/IIIa (P08514 32-887 limits assumed): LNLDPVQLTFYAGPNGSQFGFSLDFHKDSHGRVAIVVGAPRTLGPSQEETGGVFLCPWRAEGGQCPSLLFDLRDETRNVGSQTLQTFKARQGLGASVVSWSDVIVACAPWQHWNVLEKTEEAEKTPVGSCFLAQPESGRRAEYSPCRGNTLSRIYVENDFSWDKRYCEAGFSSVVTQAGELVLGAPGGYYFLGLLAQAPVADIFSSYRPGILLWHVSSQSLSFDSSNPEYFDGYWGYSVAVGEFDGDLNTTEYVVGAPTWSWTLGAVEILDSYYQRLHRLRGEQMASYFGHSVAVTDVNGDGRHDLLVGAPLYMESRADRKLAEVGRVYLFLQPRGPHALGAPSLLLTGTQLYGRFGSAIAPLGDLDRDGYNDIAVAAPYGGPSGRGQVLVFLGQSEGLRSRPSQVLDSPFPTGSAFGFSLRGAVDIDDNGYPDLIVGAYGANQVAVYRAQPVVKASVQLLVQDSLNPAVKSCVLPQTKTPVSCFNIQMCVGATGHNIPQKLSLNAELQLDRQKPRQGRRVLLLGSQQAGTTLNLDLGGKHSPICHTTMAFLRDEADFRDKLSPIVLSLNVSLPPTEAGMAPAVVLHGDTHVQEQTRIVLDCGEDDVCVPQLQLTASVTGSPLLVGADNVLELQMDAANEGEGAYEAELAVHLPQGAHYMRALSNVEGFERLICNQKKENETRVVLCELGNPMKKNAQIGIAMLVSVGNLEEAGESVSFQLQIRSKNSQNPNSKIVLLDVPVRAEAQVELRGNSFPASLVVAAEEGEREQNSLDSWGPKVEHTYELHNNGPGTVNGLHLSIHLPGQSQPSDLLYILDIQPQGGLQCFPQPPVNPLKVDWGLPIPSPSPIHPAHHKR
Chain of GP IIb/IIIa (P08514 891-1039 limits assumed): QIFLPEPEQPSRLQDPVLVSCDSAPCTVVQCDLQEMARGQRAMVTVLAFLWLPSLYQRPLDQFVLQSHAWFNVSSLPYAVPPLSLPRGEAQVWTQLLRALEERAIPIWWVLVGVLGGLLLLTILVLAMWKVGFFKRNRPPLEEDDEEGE
Chain of GP IIb/IIIa (P05106 27-788): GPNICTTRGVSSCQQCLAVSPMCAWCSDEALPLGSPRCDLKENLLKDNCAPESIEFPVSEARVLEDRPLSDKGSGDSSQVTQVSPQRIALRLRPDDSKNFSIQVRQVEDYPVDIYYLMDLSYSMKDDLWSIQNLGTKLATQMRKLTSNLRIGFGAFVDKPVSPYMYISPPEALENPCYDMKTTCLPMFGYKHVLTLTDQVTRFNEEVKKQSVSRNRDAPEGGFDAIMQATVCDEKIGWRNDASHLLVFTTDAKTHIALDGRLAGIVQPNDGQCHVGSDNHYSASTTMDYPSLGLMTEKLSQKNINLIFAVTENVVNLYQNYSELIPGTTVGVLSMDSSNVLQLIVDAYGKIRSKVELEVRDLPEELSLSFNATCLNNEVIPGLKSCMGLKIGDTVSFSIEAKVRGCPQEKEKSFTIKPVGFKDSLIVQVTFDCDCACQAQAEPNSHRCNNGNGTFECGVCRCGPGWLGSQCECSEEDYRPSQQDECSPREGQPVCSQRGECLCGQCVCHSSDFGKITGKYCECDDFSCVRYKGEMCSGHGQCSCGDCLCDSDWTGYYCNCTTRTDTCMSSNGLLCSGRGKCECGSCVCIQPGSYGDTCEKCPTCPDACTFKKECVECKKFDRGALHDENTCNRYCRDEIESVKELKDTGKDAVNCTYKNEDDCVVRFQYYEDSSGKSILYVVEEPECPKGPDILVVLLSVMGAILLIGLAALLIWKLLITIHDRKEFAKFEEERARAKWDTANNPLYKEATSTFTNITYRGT
T1 sequence (P06756 31-889 limits assumed): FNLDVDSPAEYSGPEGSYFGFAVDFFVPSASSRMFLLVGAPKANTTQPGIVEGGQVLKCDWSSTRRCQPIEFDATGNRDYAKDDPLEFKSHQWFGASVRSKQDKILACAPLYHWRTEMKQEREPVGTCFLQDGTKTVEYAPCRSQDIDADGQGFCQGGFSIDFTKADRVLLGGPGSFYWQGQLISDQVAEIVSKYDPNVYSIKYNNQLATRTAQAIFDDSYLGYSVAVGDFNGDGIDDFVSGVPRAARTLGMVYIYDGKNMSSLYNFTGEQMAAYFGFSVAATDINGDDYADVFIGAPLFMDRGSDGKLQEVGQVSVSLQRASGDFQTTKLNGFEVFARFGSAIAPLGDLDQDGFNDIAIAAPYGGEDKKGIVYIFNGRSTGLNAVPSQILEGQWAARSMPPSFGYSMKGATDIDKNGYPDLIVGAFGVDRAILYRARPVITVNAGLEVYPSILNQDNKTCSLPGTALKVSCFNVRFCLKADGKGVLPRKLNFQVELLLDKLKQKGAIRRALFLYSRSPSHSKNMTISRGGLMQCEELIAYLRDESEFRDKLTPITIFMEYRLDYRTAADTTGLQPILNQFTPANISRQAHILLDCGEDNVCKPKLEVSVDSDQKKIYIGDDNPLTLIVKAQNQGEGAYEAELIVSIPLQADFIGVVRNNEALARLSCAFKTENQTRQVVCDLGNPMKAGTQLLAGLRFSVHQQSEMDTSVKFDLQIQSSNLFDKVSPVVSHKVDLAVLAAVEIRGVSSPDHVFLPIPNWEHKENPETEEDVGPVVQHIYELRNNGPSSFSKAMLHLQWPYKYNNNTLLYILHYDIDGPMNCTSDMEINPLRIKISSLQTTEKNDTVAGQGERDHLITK
T1 sequence (P06756 891-1048 limits assumed): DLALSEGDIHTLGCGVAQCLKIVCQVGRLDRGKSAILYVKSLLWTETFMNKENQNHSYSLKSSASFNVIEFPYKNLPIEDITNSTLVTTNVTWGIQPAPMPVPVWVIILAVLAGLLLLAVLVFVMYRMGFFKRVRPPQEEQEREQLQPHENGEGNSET
T1 sequence (P05106 27-788): as the sequence (P05106 27-788) above

The term IC50 denotes the concentration that inhibits the measured activity by half. As for `O=C(NC[C@H](O)C(=O)O)c1ccc(N2CCC(NC3=NCCCN3)CC2)cc1` [Example 6, (2S)-Hydroxy-3-[4-{4-(1,4,5,6-tetrahydropyrimidin-2-ylamino)piperidin-1-yl}benzoylamino]-propionic acid], the solubility in water result in “solubility in water” is reported as “soluble in water”. For the same molecule, the IC50 at GP IIb/IIIa was 4.8 nM; in data set [1] it was 23 nM.

On to `O=C(NC[C@H](O)C(=O)O)c1ccc(N2CCC(NC3=NCCCN3)CC2)c(F)c1` [Example 14, 3-[3-Fluoro-4-{4-(1,4,5,6-tetrahydropyrimidin-2-ylamino)piperidin-1-yl}benzoylamino]-(2S)-hydroxypropionic acid], for which the solubility in water entry in “solubility in water” is “soluble in water”. Moreover, the 50% inhibitory concentration (IC50) stood at 12 nM on GP IIb/IIIa and 2.8 nM in data set [1].

The record behind these values is patent US6750219B1, “Ω-amino-α-hydroxycarboxylic acid derivatives having integrin ανβ3 antagonistic activity” (Meiji Seika Kaisha, Ltd., priority 1999, dated 2004).
